Assay results reported in patent US9512425B2, “Inhibiting migration of cancer cells” (Cornell University, priority 2012, dated 2016).

Tests used:
p-ERK (T202) = assay: Western blot of p-ERK after ATP stimulation; assay type: cell-based, human; settings: MDA-miR-708 vs MDA cells after ATP
Method: (§1) Cells were homogenized in 1×RIPA lysis buffer (Millipore) containing protease inhibitors (Roche Applied Science) and 1× phosphatase inhibitor (Thermo Scientific). Samples were boiled in 1× NuPAGE LDS sampling buffer (Invitrogen), and loaded onto 4-20% gradient Tris-HCl gels (BioRad). Western blotting was performed using antibodies specific for NNAT (Cat#AB27266, Abcam), EPDR1 (Cat# SC81820, Santa Cruz), SSRP1 (Cat#SC56782, Santa Cruz), HOXB3 (Cat# SC17161, Santa Cruz), HNRNPK (Cat# SC28380, Santa Cruz), CNTFR, Phospho-p44/42 MAPK (Erk1/2, Cat #4370, Cell Signaling), p44/42 MAPK (Erk1/2, Cat #4695, Cell Signaling), VINCULIN (Cat#V9131, Sigma-Aldrich), and β-ACTIN (Sigma-Aldrich).

CD44 3'-UTR = assay: 3'-UTR dual luciferase assay; assay type: cell-based; settings: 293T cells, Renilla/Firefly ratio
Method: (§2) The 3′-UTR of a gene of interest was amplified by PCR and cloned into a pmirGLO Dual-Luciferase miRNA Target Expression Vector (Promega). To express miRNA, synthetic premiRNA precursor for miR-708 and control scrambled miRNA were purchased from Applied Biosystems (Ambion). The miRNA precursor and pmirGLO Dual-Luciferase 3′-UTR vector were co-transfected into […] cells using the siPORT NeoFX Transfection Agent following manufacturer's instructions (Ambion). Cells were harvested and lysed at 48 hr post-transfection. The interaction between miR-708 and target 3′-UTR was measured by Dual-luciferase assay system (Promega).

Gon4l 3'-UTR = assay: 3'-UTR dual luciferase assay; assay type: cell-based; settings: 293T cells, Renilla/Firefly ratio
Method: as §2

Ntrk2 3'-UTR = assay: 3'-UTR dual luciferase assay; assay type: cell-based; settings: 293T cells, Renilla/Firefly ratio
Method: as §2

MDA-MB-231 cells = assay: Orthotopic MDA tumor / pulmonary metastasis model, bioluminescence imaging; assay type: in vivo, CB-17 SCID mice
Method: For orthotopic injection, 1×10^6 viable MDA-MB-231, MDA-Cont, or MDA-miR-708 cells were injected into CB-17 SCID mice fat pads in a volume of 0.1 ml. Tumor growth and pulmonary metastases (following resection of primary tumor) were monitored by live animal bioluminescent imaging (Xenogen IVIS system) once per week.
Mice inoculated with firefly luciferase were anaesthetized and injected retro-orbitally with 75 mg/kg of D-luciferin (30 mg/mL in PBS). Images were taken with mice in a supine position using the Xenogen IVIS system coupled to Living Image acquisition and analysis software (Xenogen). For bioluminescence (BLI) plots, photon flux was calculated for each mouse by using a rectangular region of interest encompassing the thorax of the mouse.

p-FAK (S910) = assay: Western blot and immunostaining of p-FAK; assay type: cell-based, human
Method: as §1
For immunofluorescence staining, cells were fixed overnight in paraformaldehyde before incubation with primary antibodies; mouse-monoclonal VINCULIN (Cat#V9131, Sigma-Aldrich, 1:400) and rabbit-polyclonal phosphorylated FAK (pS910, Cat #44596G, Invitrogen, 1:1000). Alexa Flour 568 or Alexa Fluor 647 anti-mouse IgG, and Alexa Fluor 647 anti-rabbit IgG (Invitrogen), were used for visualization. Following incubation with secondary antibodies the tissue sections were treated with Rhodamine Phalloidin (Cat# R415, Invitrogen). […] Images were analyzed using Axiovision 4.6 software (Carl Zeiss Inc.).

NNAT protein = assay: Western blot of NNAT; assay type: cell-based, human
Method: as §1

intracellular Ca^2+ = assay: Intracellular calcium measurements (Fura-2, ATP stimulation); assay type: cell-based, human
Method: MDA-control, MDA-miR-708, and MDA-miR-708-Nnat-mut cells were grown on coverslips and used 2-3 days after plating. Cells were loaded with […] Fura-2 (Molecular Probes), a membrane-permeable Ca^2+-indicator dye, at 37° C. for 30 min. Cells were then washed and incubated in HEPES-buffered Na^+-Ringer's solution (140 mM NaCl, 5 mM KCl, 10 mM HEPES, 2 mM CaCl2, and 1 mM MgCl2, pH 7.4). Individual vials (50 mg) of the acetoxymethyl derivative of Fura-2 (Invitrogen/Molecular Probes) were stored dry at 0° C. and reconstituted in dimethyl sulfoxide at a concentration of 10 mM for each experiment. At the concentrations used, dimethyl sulfoxide had no effect on any preparation in these studies. The coverslip with the dye-loaded cells was attached to the bottom of a flow-through superfusion chamber and mounted on the stage of an inverted epifluorescence microscope (Nikon Eclipse TE-2000). The cells in the chamber were superfused and maintained at 37° C. as previously described (O'Connor and Silver, 2007). Cells were first visualized under transmitted light with a Nikon CF Fluor oil immersion objective (X40/1.3 numerical aperture) before the start of the fluorescence measurements. Images were obtained at 340 nm and 380 nm excitation and at 510 nm emission wavelengths. The ratio was determined from the images at 340 nm and 380 nm. The imaging workstation was controlled with the MetaFluor software package (Universal Imaging). Cells in the experimental field of view were analyzed singularly and independently from their neighbors. Results are expressed as means±SEM, where n refers to the total number of individually analyzed cells.
The inventors hypothesized that miR-708-mediated targeting of Nnat may lead to impaired regulation of intracellular Ca^2+. This would explain the inhibitory effect on the migratory phenotype of metastatic tumor cells observed earlier (see, e.g., FIG. 1E). To test this hypothesis, MDA and MDA-miR-708 cells were loaded with the intracellular calcium indicator, Fura-2, and the 340/380 ratios were monitored in the absence and presence of exogenous ATP. ATP binds ATP receptors on the cell surface, resulting in the cleavage of PIP2 into IP3 and DAG. IP3 binds IP3 receptors on the endoplasmic reticulum membrane, and releases ionized calcium from the endoplasmic reticulum (Vandewalle et al., 1994), (Berridge et al., 2003; Swanson et al., 1998). Thus, ATP-stimulated calcium release from endoplasmic reticulum was used to evaluate the consequence of Nnat suppression by miR-708.

miR-708: microRNA, mature sequence 5'-AAGGAGCUUACAAUCUAGCUGGG-3' (SEQ ID NO: 2); expressed from lentiviral vector or used as synthetic precursor
activated Erk (p-Erk) levels (p-ERK (T202)): reduced levels
repression of 3'-UTR luciferase reporter (CD44 3'-UTR): significant repression
repression of 3'-UTR luciferase reporter (Gon4l 3'-UTR): significant repression
repression of 3'-UTR luciferase reporter (Ntrk2 3'-UTR): significant repression
primary tumor growth (bioluminescence imaging) (MDA-MB-231 cells; MDA-miR-708 vs MDA-pZeo control, day 30): no change
lung metastases (bioluminescence) (MDA-MB-231 cells; MDA-miR-708 vs control, primary tumors resected day 30, day 37): significantly suppressed
primary tumor growth (bioluminescence) (MDA-MB-231 cells; constitutive miR-708 in MDA cells, mammary fat pad, day 60): no significant difference
lung metastases (bioluminescence) (MDA-MB-231 cells; constitutive miR-708 in MDA cells, primary tumors resected day 60, day 74): suppressed lung metastases
primary tumor growth (MDA-MB-231 cells; doxycycline-mediated induction of miR-708, day 60): not affected
metastases (MDA-MB-231 cells; doxycycline-mediated induction of miR-708, day 74): attenuated metastases
p-FAK levels following ATP-mediated Ca^2+ release (p-FAK (S910); Western blot, MDA-miR-708 vs MDA cells): increased in MDA and not in MDA-miR-708 cells
p-FAK at vinculin+ focal adhesions (p-FAK (S910); immunostaining, MDA-miR-708 cells): devoid of p-FAK
expression of NNAT protein (NNAT protein; MDA-708 vs MDA control cells, constitutive expression): significantly decreased
Nnat levels (NNAT protein; doxycycline-mediated conditional expression of miR-708): significant reduction
NNAT expression from Nnat cDNA (NNAT protein; mutant 3'-UTR (Nnat-mut), synthetic miR-708): abolished miR-708-mediated suppression
NNAT expression from Nnat cDNA (NNAT protein; wild type UTR, synthetic miR-708 vs scrambled): suppressed expression
regulation of intracellular Ca^2+ after ATP (intracellular Ca^2+; MDA cells expressing miR-708 vs MDA): attenuated regulation
slope, initial rate of calcium regulation back to baseline (representative trace) (intracellular Ca^2+; MDA-miR-708 cells stimulated with ATP, control slope 0.72): 0.3 ratio/min
pre-ATP stimulation (basal) ratio (intracellular Ca^2+; MDA-miR-708 cells, mean±SEM): 0.97±0.01
peak calcium response due to ATP stimulation (340/380 ratio) (intracellular Ca^2+; MDA-miR-708 cells, mean±SEM, n=107): 1.77±0.06
initial rate of calcium regulation back to baseline (intracellular Ca^2+; MDA-miR-708 cells, n=105, control 0.52±0.03): 0.33±0.02
